# Results from ChEMBL document CHEMBL1201862, “PubChem BioAssay data set” (2004).
# Active and inactive are the calls of the source.
# Legend:
# [1] = target: Peroxisome proliferator-activated receptor gamma/Nuclear receptor coactivator 1 (Homo sapiens, UniProt P37231); type: functional;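 further: agonist potency as compounds enhance coactivator SRC-1 recruitment to PPARgamma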
# [2] = target: Peroxisome proliferator-activated receptor gamma/Nuclear receptor coactivator 3 (Homo sapiens, UniProt P37231); type: functional;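 further: agonist potency for raising coactivator recruitment to the receptor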
# [3] = target: Peroxisome proliferator-activated receptor gamma/Nuclear receptor coactivator 2 (Homo sapiens, UniProt P37231); type: functional;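 further: agonist potency for raising coactivator recruitment to the receptor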
# Sequence of Peroxisome proliferator-activated receptor gamma/Nuclear receptor coactivator 2 (P37231 whole entry): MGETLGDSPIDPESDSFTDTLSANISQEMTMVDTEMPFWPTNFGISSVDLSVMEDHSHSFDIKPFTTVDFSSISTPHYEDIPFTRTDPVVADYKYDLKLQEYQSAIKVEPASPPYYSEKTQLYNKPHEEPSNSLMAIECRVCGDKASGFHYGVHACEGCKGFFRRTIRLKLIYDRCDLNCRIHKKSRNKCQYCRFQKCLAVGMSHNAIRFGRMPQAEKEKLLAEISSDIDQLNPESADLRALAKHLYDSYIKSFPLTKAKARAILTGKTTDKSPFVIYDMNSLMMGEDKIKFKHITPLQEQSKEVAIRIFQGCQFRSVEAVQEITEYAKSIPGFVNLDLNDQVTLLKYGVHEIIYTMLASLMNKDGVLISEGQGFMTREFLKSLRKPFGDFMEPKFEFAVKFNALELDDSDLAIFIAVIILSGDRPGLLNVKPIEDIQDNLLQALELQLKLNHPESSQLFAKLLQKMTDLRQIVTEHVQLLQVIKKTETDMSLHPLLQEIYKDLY
# Sequence of Peroxisome proliferator-activated receptor gamma/Nuclear receptor coactivator 2 (Q15596 whole entry, further chain): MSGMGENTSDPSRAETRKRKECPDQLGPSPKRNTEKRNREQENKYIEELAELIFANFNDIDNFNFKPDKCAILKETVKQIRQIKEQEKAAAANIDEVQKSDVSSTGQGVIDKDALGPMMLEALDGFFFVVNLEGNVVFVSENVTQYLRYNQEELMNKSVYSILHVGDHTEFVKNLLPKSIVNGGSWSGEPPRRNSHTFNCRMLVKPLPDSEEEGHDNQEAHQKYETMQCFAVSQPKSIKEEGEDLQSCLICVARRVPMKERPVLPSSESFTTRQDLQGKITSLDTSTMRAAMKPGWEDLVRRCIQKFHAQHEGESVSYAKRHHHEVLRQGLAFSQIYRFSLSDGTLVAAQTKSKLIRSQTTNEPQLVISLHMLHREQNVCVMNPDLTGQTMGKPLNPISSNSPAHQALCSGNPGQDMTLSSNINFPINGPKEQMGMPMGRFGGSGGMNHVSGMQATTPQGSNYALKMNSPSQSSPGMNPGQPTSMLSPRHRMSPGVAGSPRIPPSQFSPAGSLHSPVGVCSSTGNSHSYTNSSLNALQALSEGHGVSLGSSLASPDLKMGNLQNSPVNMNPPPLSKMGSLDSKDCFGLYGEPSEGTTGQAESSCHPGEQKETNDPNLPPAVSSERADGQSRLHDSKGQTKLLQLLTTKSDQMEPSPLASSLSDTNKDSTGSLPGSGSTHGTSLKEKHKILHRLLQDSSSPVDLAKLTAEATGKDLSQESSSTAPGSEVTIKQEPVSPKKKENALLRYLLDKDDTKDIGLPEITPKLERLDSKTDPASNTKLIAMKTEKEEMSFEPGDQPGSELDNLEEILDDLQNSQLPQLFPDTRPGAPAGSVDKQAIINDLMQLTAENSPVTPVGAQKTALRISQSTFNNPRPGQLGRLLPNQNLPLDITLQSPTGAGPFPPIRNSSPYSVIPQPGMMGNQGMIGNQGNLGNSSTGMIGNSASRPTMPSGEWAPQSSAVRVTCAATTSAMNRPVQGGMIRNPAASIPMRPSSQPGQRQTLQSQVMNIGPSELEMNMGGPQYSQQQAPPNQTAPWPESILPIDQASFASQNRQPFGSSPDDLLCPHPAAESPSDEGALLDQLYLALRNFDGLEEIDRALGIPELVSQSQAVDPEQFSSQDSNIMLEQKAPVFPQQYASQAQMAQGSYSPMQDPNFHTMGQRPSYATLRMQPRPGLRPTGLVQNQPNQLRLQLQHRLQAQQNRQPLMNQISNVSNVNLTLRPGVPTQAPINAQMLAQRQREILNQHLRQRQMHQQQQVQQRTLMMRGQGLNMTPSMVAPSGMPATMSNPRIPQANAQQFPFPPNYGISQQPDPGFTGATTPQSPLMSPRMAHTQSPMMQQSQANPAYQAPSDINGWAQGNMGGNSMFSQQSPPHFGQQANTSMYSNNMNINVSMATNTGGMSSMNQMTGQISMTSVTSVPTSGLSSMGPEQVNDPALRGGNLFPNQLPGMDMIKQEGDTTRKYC
# [4] = A cytotoxicity screen of small molecule inhibitors of the PhoP region in Salmonella typhi identified in the primary screen. [Related pubchem assays: 1850, 1864, 1985 ]; type: functional
# Cytochrome P450 3A4 [5] = target: T1, Cytochrome P450 3A4 (Homo sapiens, UniProt P08684); settings: Potency
# T1 sequence (P08684 whole entry): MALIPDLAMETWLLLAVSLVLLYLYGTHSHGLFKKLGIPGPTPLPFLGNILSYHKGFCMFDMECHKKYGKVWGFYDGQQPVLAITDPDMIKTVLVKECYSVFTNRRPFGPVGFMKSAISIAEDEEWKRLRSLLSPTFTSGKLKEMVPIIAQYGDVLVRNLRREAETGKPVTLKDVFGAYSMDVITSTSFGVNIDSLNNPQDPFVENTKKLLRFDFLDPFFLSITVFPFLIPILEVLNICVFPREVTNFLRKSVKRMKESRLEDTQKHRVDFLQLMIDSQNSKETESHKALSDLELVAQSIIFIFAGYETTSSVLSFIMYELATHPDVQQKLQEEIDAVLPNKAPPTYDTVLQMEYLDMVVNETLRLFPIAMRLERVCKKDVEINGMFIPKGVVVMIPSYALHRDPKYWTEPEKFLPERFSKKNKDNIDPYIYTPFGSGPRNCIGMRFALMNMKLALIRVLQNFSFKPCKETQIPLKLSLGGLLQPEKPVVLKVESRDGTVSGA
# [6] = target: Eukaryotic translation initiation factor 4E (Mus musculus, UniProt P63073); assay: blockers of eIF4G binding by eIF4E – biochemical, TR-FRET, dose response (AID 855); type: functional;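 further: potency for disrupting eIF4E binding to eIF4GI seen as loss of FRET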
# Sequence of Eukaryotic translation initiation factor 4E (P63073 whole entry): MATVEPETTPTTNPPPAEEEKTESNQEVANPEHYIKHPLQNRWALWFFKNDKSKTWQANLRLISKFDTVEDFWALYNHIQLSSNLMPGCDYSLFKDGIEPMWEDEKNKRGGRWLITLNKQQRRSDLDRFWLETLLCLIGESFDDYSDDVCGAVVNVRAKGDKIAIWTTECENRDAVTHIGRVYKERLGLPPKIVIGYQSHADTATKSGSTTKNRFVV
# [7] = target: Induced myeloid leukemia cell differentiation protein Mcl-1 (Homo sapiens, UniProt Q07820); type: functional
# Sequence of Induced myeloid leukemia cell differentiation protein Mcl-1 (Q07820 whole entry): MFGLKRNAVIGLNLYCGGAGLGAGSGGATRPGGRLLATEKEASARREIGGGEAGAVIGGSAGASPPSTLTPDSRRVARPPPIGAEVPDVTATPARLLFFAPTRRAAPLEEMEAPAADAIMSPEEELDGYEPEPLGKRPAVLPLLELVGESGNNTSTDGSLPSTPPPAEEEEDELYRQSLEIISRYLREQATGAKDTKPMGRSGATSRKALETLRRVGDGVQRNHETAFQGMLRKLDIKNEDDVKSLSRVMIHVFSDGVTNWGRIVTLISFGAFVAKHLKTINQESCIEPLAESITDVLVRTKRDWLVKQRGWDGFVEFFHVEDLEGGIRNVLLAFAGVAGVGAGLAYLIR
# H9c2 = assay: cells; type: functional, cell-based; settings: Rattus norvegicus, H9c2, Myocardium;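 further: confirmatory concentration-response retest of ultra-high-throughput screening hits for modulation of myocardial damage; cell death induced by hydrogen peroxide oxidative stress; compound pretreatment for 60 min then peroxide exposure for 2 h; potency is for protecting the cells against peroxide damage rather than for killing them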
# [8] = target: T2, Endoribonuclease toxin MazF (Escherichia coli K-12, UniProt P0AE70); assay: activation of MazEF endoribonuclease cleavage – biochemical, fluorescence, single-stranded RNA substrate, uHTS hits, dose response (AID 588481); type: functional
# T2 sequence (P0AE70 whole entry): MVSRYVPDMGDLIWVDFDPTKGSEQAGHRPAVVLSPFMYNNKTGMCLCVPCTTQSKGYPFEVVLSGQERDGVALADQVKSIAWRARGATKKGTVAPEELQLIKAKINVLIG
# [9] = target: T3, RNA-binding protein pos-1 (Caenorhabditis elegans, UniProt G5EF15); assay: disruptors of C. elegans POS-1 RNA interaction – biochemical, fluorescence polarization, dose response (AID 1964);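 further: purified POS-1 fused to maltose binding protein made in E. coli; potency of compounds blocking POS-1 binding to fluorescent RNA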
# T3 sequence (G5EF15 whole entry): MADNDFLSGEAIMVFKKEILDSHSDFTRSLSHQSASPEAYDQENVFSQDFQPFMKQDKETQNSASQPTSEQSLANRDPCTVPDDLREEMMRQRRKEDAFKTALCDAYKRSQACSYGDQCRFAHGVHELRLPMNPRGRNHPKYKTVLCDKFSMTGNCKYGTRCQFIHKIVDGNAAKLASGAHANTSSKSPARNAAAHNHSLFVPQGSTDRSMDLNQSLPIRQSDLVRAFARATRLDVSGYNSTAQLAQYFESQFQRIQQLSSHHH
# [10] = target: T2, Endoribonuclease toxin MazF; assay: substrate-only fluorescence increase artefacts – biochemical, single-stranded RNase substrate, counter-screen for MazEF activator project, dose response (AID 588502); type: functional
# [11] = target: T4, Zinc finger protein mex-5 (Caenorhabditis elegans, UniProt Q9XUB2); assay: potency of MEX-5 RNA-binding blockers – biochemical, C. elegans, fluorescence polarization, dose response (AID 1960)
# T4 sequence (Q9XUB2 whole entry): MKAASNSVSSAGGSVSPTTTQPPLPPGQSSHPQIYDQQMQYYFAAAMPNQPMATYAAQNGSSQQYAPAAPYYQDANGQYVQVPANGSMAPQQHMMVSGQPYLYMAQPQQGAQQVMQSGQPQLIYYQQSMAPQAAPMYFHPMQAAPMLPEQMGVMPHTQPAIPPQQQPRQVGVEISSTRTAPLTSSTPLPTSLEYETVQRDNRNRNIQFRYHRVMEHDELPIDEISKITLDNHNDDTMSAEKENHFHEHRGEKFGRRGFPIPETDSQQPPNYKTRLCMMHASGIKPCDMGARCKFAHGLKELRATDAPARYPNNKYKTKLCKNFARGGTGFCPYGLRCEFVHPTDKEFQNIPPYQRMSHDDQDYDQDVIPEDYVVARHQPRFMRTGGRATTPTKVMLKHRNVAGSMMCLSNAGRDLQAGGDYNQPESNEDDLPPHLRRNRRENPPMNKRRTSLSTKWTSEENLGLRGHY
# [12] = target: T5, Polyadenylate-binding protein 1 (Homo sapiens, UniProt P11940); assay: MLLE binding blockers, Cy5 peptide tracer – biochemical, fluorescence polarization, Cy5-PAM2 peptide, secondary, miRNA deadenylation inhibitor project, dose response (AID 602260); type: functional; settings: read-out: IC50_Mean
# [13] = target: T5, Polyadenylate-binding protein 1; assay: MLLE domain peptide-binding blockers, IC50 – biochemical, fluorescence polarization, FITC-PAM2 peptide, dose response (AID 602259); type: functional; settings: read-out: IC50_Mean
# [14] = reduction of Shn3 3'UTR-driven luciferase in osteoblasts – cell-based, Clone20 osteoblasts, firefly luciferase, cherry-picked, dose response (AID 624132); type: functional;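 further: firefly luciferase luminescence from reporter carrying the Shn3 3'UTR in osteoblasts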
# [15] = non-specific 3'UTR reporter inhibition in Clone20-Shn3RL – cell-based, Renilla luciferase, cherry-picked, counter-screen for Shn3 inhibitor project, dose response (AID 624133); type: functional
# [16] = loss of viability in HepG2 cells – cell-based, CellTiter-Glo, cherry-picked, cytotoxicity control for Shn3 inhibitor project, dose response (AID 624134); type: functional
# [17] = viability of HCT116 lacking mutant beta-catenin – cell-based, human colon tumor, dose response (AID 1045); type: functional;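 further: HCT116 colon tumor cells with beta catenin knocked out; cells exposed to compound for 60 hours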
# [18] = microbe, parasite or virus in culture; type: functional; settings: Mycobacterium tuberculosis
# [19] = Luminescence Cell-Based Dose Retest to Confirm Inhibitors of Cancer Stem Cells. [Related pubchem assays (depositor defined):AID2717, AID2721]; type: functional; settings: Homo sapiens
# INS1 = assay: INS-1E survival protection against cytokine death – cell-based, luminescence, retest, dose response (AID 449756); type: functional; settings: Rattus norvegicus;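 further: cell death triggered by IL-1 beta plus TNF-alpha plus IFN-gamma mixture; protective hits raise ATP signal compared with cytokine alone wells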
# [20] = viability of PTEN-deleted HCT116 cells – cell-based, HCT116 PTEN knockout, dose response (AID 1047); type: functional;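 further: HCT116 colon tumor cells with PTEN knocked out; cells exposed to compound for 60 hours before readout; potency for loss of cell viability measured by luminescence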
# Cytochrome P450 2C19 = Cytochrome P450 2C19 (Homo sapiens, UniProt P33261); assay: Cytochrome panel assay with activity outcomes. Panel member name: p450-cyp2c19 Compounds with AC50 equal or less than 10 uM are considered active; type: functional; settings: read-out: AC50
# Cytochrome P450 1A2 = target: T6, Cytochrome P450 1A2 (Homo sapiens, UniProt P05177);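 further: PubChem cytochrome P450 panel assay, CYP1A2 panel member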
# T6 sequence (P05177 whole entry): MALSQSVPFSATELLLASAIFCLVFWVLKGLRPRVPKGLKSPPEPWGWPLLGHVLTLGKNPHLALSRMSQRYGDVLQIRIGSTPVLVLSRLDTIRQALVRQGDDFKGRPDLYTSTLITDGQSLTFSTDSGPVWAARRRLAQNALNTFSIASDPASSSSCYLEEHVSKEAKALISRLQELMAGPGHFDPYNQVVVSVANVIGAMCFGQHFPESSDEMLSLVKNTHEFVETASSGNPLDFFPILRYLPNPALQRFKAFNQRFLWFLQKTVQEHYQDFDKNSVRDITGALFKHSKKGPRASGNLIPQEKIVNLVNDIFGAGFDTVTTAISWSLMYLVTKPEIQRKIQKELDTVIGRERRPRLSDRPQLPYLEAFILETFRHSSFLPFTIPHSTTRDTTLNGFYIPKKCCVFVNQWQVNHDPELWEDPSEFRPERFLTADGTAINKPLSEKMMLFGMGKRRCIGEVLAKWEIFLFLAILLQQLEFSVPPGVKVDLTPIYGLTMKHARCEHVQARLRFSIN
# Cytochrome P450 3A4 [21] = target: T1, Cytochrome P450 3A4
# Sequence of Peroxisome proliferator-activated receptor gamma/Nuclear receptor coactivator 1 (P37231 whole entry): as the sequence (P37231 whole entry) above
# Sequence of Peroxisome proliferator-activated receptor gamma/Nuclear receptor coactivator 1 (Q15788 whole entry, further chain): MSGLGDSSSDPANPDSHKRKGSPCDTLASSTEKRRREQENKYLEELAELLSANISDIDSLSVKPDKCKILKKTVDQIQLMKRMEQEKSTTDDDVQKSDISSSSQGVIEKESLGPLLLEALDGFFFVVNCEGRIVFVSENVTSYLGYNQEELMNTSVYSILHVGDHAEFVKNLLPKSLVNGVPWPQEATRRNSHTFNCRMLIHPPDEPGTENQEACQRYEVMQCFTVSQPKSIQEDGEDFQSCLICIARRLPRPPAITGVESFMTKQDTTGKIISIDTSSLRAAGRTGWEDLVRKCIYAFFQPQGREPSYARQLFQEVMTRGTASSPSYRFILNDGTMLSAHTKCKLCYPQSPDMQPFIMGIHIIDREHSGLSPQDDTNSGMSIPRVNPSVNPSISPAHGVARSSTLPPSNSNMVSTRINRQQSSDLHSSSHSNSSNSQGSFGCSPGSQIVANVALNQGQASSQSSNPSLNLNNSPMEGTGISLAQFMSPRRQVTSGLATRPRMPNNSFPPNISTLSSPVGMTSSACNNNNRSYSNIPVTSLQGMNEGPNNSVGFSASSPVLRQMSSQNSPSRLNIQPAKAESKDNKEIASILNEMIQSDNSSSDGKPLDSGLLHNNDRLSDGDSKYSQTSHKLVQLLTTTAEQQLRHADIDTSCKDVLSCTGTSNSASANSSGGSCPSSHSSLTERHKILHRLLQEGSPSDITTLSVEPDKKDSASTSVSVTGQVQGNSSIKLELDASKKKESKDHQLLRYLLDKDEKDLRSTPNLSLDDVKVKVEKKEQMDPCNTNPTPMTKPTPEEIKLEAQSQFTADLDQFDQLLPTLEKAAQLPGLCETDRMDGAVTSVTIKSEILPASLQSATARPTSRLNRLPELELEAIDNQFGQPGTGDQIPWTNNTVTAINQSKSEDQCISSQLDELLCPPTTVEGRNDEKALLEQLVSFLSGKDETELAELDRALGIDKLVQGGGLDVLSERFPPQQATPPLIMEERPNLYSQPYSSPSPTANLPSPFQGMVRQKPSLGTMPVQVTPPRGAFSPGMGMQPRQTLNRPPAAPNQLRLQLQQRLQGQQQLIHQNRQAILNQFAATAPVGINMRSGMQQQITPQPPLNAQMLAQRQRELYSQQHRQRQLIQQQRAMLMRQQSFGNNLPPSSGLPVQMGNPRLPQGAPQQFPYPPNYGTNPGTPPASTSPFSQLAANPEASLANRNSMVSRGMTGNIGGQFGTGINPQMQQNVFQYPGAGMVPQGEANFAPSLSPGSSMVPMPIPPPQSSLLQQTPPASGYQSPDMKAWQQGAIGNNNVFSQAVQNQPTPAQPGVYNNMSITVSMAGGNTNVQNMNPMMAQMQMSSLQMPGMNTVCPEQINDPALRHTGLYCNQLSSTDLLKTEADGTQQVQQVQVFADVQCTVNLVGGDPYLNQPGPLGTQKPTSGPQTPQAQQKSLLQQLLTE
structure (smiles),measurement,setting,value
O=C(COc1ccc2ccccc2c1)NNC(=O)Cc1ccccc1,EC50,[1],6.07 µM (active)
same,EC50,[2],6.57 µM (active)
same,EC50,[3],5.17 µM (active)
Cc1ccc(NC(=O)c2ccccc2)s1,EC50,[4],> 50 µM (active)
CCCn1c(-c2ccc(F)cc2)nc2c(NC(C)CN(C)C)nc(C)nc21 (centres undefined),AC50,Cytochrome P450 3A4 [5],20 µM (inconclusive)
Cc1ccc(C23CC4CC(CC(CN)(C4)C2)C3)cc1,IC50,[6],50 µM (inactive)
Cc1cc(C(F)F)n2nc(C(=O)Nc3sc4c(c3C(N)=O)CCC4)nc2n1,IC50,[7],40 µM (active)
Cn1cccc1-c1nc2cc(NC(=O)c3ccccc3)ccc2[nH]1,EC50,[1],> 79.4 µM (not active)
same,EC50,[2],> 79.4 µM (not active)
same,EC50,[3],> 79.4 µM (not active)
O=C(CN1C(=O)/C(=C2\SC(=S)N(C3CCS(=O)(=O)C3)C2=O)c2ccccc21)Nc1ccc(F)cc1 (centres undefined),IC50,[7],3.55 µM (active)
O=C1c2ccccc2NC(c2cccc([N+](=O)[O-])c2)N1CCc1ccccc1 (centres undefined),EC50,[4],> 50 µM (active)
CCCCCCCC#Cc1ccccc1/C=N/[S+]([O-])C(C)(C)C (centres undefined),AC50,Cytochrome P450 3A4 [5],3.16 µM (inconclusive)
COc1ccc(NC(=O)C(OC(=O)c2ccc([N+](=O)[O-])o2)c2ccccc2)cc1Cl (centres undefined),IC50,H9c2,> 79 µM (inactive)
COc1cc(O)c(C(=O)/C=C/c2ccccc2)c(OC)c1 [FLAVOKAWAIN B],AC50,Cytochrome P450 3A4 [5],15.8 µM (inconclusive)
C=CCN1C(=O)/C(=C2/Sc3ccccc3N2CC)SC1=S,EC50,[8],> 99 µM (inactive)
same,EC50,[9],16.1 µM (active)
same,EC50,[10],56.1 µM (inactive)
same,EC50,[11],9.69 µM (active)
CCOC(=O)c1ccc(CC(=O)c2oc3cc(O)ccc3c2C)o1,EC50,[8],> 99 µM (inactive)
same,EC50,[10],81.2 µM (inactive)
Clc1nccc2c1ccc1ccccc12,AC50,Cytochrome P450 3A4 [5],12.6 µM (inconclusive)
CCN1C[C@@]2(COC)C3[C@@H](OC)C4[C@@H]1[C@@]3(C1C[C@@]3(O)[C@H](OC(=O)c5ccccc5)C1[C@]4(OC(C)=O)[C@@H](O)[C@@H]3OC)[C@@H](OC)C[C@H]2O (some centres undefined),AC50,Cytochrome P450 3A4 [5],31.6 µM (inconclusive)
Cc1[nH]c2ccc(C(=O)Nc3ccncc3)cc2c1C,EC50,[4],> 50 µM (active)
O=C(Nc1ccc(F)cc1)C1CCC(CNc2c(N3CCCCC3)c(=O)c2=O)CC1 (centres undefined),EC50,[4],> 50 µM (active)
CC(=O)Oc1cc2c(c(C)c1OC(C)=O)CC=C1[C@]3(C)CC[C@]4(C)CC[C@@](C)(C(=O)O)CC4[C@]3(C)CC[C@]12C (some centres undefined),AC50,Cytochrome P450 3A4 [5],31.6 µM (inconclusive)
Cc1ccc(CSc2nc3c(cc2C#N)CCC3)cc1,EC50,[1],42.7 µM (not active)
same,EC50,[2],47.6 µM (not active)
same,EC50,[3],28.5 µM (not active)
Oc1nc(CN2CCCC2)nc2sc3c(c12)CCC3,IC50,H9c2,> 79 µM (inactive)
COc1ccc(OC)c(C(=O)COC(=O)c2ccc([N+](=O)[O-])o2)c1,IC50,H9c2,> 79 µM (inactive)
CCc1nc2ccc(C(=O)Nc3nnc(C)s3)cc2nc1CC,EC50,[1],> 79.4 µM (not active)
same,EC50,[2],> 79.4 µM (not active)
same,EC50,[3],> 79.4 µM (not active)
N#CC(C(=O)NCc1ccccc1)c1nc2ccccc2nc1N1CCCC1 (centres undefined),EC50,[8],4.64 µM (active)
same,EC50,[9],> 300 µM (inconclusive)
same,EC50,[10],> 99 µM (inactive)
same,EC50,[11],> 300 µM (inconclusive)
CCCN(CC(=O)Nc1ccccc1C)C(=O)COC(=O)CSc1ccc([N+](=O)[O-])cc1,IC50,[12],> 66 µM (inactive)
same,IC50,[13],> 66 µM (inactive)
CCc1ccc(C2=NN(S(C)(=O)=O)C(c3cccs3)C2)cc1 (centres undefined),EC50,[8],> 99 µM (inactive)
same,EC50,[10],> 99 µM (inactive)
CC12CC3(C)CC(C)(C1)CC(C(=O)NC(=S)N1CCCC1)(C2)C3,IC50,[6],50 µM (inactive)
Cn1c(=O)c2c(ncn2CCNC2=NCCCCC2)n(C)c1=O,EC50,[1],> 79.4 µM (not active)
same,EC50,[2],> 79.4 µM (not active)
same,EC50,[3],> 79.4 µM (not active)
Cc1cc(C)n(-c2nc3nonc3nc2Nc2cccc(C)c2C)n1,EC50,[8],> 99 µM (inactive)
same,EC50,[10],> 99 µM (inactive)
Cc1cccc(NC(=O)Cn2cc(C(=O)C3CC3)c3ccccc32)c1C,AC50,[14],2.39 µM (active)
same,AC50,[15],3.05 µM (active)
same,AC50,[16],66 µM (active)
CCCCCc1nc2c(c(=O)c3ccccc3n2C)c(=O)n1C1CCCCCC1,AC50,[14],8.21 µM (active)
same,EC50,[17],6.38 µM (active)
same,AC50,[15],5.56 µM (active)
same,AC50,[16],42.3 µM (active)
same,CC50,[18],10.4 µM (active)
same,AC50,[19],3.56 µM (active)
same,AC50,INS1,7.76 µM (active)
same,EC50,[20],7.59 µM (active)
COC(=O)c1cc(NC(S)=Nc2cc(Cl)cc(Cl)c2)cc(C(=O)OC)c1,IC50,[12],> 66 µM (inactive)
same,IC50,[13],> 66 µM (inactive)
CC(C)C(=O)N1C2CCC1CC(O)(c1ccc(F)cc1)C2 (centres undefined),AC50,Cytochrome P450 2C19,20 µM (inconclusive)
same,EC50,[1],> 79.4 µM (not active)
same,EC50,[2],> 79.4 µM (not active)
same,AC50,Cytochrome P450 1A2,17.8 µM (inconclusive)
same,EC50,[3],> 79.4 µM (not active)
same,AC50,Cytochrome P450 3A4 [21],22.4 µM (inconclusive)
COc1ccc(C2/C=C\CN(S(=O)(=O)c3cccc4cccnc34)CC(=O)N2Cc2ccc(F)cc2)cc1 (centres undefined),IC50,H9c2,> 79 µM (inactive)
COc1cc(O)cc(/C=C/c2ccccc2)c1 [PINOSYLVIN METHYL ETHER],AC50,Cytochrome P450 3A4 [5],31.6 µM (inconclusive)
NC(=O)c1c(NC(=O)Cn2nc(C(=O)O)c3ccccc3c2=O)sc2c1CCC2,IC50,H9c2,> 79 µM (inactive)
CCCCOC(=O)Nc1nnc(SCCOc2ccc(C)cc2)s1,IC50,[6],> 64 µM (inactive)
CCN(CC)C(=O)c1ccc2c3c(cccc13)C(=O)N(CCc1ccc(OC)c(OC)c1)C2=O,IC50,H9c2,> 79 µM (inactive)
Cc1nc(OCc2ccccc2)c2ccccc2n1,IC50,H9c2,> 79 µM (inactive)
c1cncc(CNC2CCCC2)c1,EC50,[1],> 79.4 µM (not active)
same,EC50,[2],> 79.4 µM (not active)
same,EC50,[3],> 79.4 µM (not active)
COc1cc(NC(=O)c2ccccc2)c(OC)cc1NC(=O)Cc1ccc(Br)cc1,EC50,[8],29.6 µM (inactive)
same,EC50,[10],> 99 µM (inactive)
O=C(Nc1ccc(S(=O)(=O)N2CCCC2)cc1)c1cccnc1,EC50,[4],> 50 µM (active)
